From ChEMBL document CHEMBL1759842, “Discovery of non-glucoside SGLT2 inhibitors” (Bioorg Med Chem Lett, 2011)

Assays:
SGLT1 protein = biological target: T1, SGLT1 protein (Mus musculus, UniProt Q9QXI6); test: Inhibition of mouse SGLT1 expressed in CHO cells assessed as inhibition of [14C]-alpha-methyl-D-glucopyranoside transport after 60 mins by scintillation counting; assay type: cell-based
T1 sequence (Q9QXI6 whole entry): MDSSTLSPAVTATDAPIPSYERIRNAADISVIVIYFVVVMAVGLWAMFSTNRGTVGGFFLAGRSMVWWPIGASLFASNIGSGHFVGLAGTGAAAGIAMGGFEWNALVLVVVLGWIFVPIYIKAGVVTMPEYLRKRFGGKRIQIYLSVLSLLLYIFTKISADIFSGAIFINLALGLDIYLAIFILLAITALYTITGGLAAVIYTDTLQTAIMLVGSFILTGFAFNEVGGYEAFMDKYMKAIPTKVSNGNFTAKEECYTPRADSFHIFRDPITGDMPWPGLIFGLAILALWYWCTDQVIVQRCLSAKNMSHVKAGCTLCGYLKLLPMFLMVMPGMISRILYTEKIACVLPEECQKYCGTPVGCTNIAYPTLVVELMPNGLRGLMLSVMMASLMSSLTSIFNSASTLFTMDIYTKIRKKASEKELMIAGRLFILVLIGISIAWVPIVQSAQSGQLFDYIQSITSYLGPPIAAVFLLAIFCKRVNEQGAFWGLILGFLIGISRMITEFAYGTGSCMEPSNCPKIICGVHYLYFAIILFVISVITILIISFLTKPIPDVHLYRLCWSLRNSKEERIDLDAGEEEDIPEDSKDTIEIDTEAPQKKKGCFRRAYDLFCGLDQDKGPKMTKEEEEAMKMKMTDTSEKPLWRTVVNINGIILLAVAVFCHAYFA

[1] = biological target: T2, Sodium/glucose cotransporter 2 (Rattus norvegicus, UniProt P53792); test: Inhibition of rat SGLT2 expressed in CHO cells assessed as inhibition of [14C]-alpha-methyl-D-glucopyranoside transport after 60 mins by scintillation counting; assay type: cell-based
T2 sequence (P53792 whole entry): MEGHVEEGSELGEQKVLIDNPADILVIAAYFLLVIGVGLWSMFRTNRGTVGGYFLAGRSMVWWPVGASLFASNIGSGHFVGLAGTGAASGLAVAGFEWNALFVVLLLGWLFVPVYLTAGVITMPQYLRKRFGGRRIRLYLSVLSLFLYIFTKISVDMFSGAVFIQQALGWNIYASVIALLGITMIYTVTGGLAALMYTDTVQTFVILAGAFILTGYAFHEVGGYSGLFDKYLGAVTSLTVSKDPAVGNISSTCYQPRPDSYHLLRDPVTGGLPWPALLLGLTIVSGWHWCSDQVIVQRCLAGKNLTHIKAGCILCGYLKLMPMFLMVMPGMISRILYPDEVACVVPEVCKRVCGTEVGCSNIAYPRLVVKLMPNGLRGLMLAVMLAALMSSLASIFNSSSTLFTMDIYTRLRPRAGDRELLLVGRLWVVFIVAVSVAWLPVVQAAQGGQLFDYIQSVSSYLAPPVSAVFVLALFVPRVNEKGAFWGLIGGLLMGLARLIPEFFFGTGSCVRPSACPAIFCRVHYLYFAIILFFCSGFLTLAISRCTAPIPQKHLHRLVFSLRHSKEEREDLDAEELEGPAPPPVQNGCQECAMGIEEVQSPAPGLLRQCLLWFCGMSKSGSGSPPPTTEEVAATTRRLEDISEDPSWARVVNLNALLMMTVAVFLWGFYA

An IC50 (SGLT1 protein) of 3000 nM and an IC50 [1] of 400 nM were found for `Cn1c(CN2C(=O)CSc3ccc(C(F)(F)F)cc32)nnc1SCc1ccc(Cl)cc1` in this work.
